Assay results taken from article PMC11589101, “Profiling the endocrine-disrupting properties of triazines, triazoles, and short-chain PFAS” (Toxicological Sciences, 2024).
pIC50: −log10 of the molar value.

How the values were obtained:
[1] = tested on: steroidogenesis in H295R cells; format: cell-based, human; conditions: 48 h; for effect on steroid hormone levels compared with vehicle-treated controls / increased levels of 17α-OH-progesterone compared with vehicle-treated controls: highest noncytotoxic exposure concentration
Method: (§1) All experiments were performed using cells in passages 5 to 10. First, the highest noncytotoxic concentration (<10% decrease in viability) was determined for each compound with MTT assays. Next, the levels of 13 steroid hormones were determined in the medium after exposure of the H295R cells to the highest noncytotoxic concentration using LC-MS/MS. These concentrations were tested in triplicate (n = 3) in 3 independent experiments (N = 3), and all 9 samples were measured in LC-MS/MS. […] These dilution series were tested in 3 independent experiments (N = 3), with triplicate exposures in each of these experiments (n = 3). Supernatants of the triplicate exposures per experiment were pooled after the 48 h of exposure and the 3 pooled samples were measured with LC-MS/MS. This was done to keep the number of LC-MS/MS measurements manageable.
The exposure medium was prepared by diluting stock solutions 1,000× in the cell culture medium to obtain a final concentration of 0.1% of the solvent. Exposure was started by replacing cell culture medium with the exposure medium. […] On a separate quality control plate, cells were exposed to 10 μM forskolin (Sigma-Aldrich) and 1 μM prochloraz (Sigma-Aldrich) to serve as positive control for increased and decreased steroid hormone secretion, respectively. Exposure was started by replacing the culture medium in the cell culture plates with the exposure medium.
(§2) After 48 h of exposure, the supernatant medium from each well was transferred to the wells of a clean 48-well plate, and that plate was stored at −80 °C for later steroid measurement. MTT assays were performed by adding 500 μl of 0.5 mg/ml MTT (3-(4,5-dimethylthiazol-2-yl)-2,5-diphenyltetrazolium bromide; Sigma-Aldrich) solution in medium to each well of the 24-well cell culture plate and incubating for 1 h at 37 °C with 5% CO2. After incubation, the MTT solution was discarded and 500 μl of DMSO was added to each well to lyse the cells and dissolve the formazan crystals. Plates were shaken at 700 rpm for 10 min and absorbance was measured at 560 nm wavelength.
Hormones were concentrated from supernatants by solid phase extraction using Bond Elut Plexa cartridges, 30 mg sorbent, 1.8 ml (Agilent Technologies, Santa Clara, CA, United States). The cartridges were conditioned with 1 ml of 0.5% formic acid in methanol, and subsequent addition of 1 ml of 0.5% formic acid in water. A mix of 100 μl of H295R medium sample in 1 ml of 2% formic acid in water and 50 μl of isotopically labeled internal standards mix (Table S1) was loaded on the cartridges. These were then washed with 1 ml of water followed by 1 ml of water–methanol mixture (70:30, v/v). Cartridges were dried by vacuum and the hormones were eluted with 700 μl of methanol into 96-well-deep well polypropylene plates. Eluates were evaporated to dryness during approximately 2 h in a refrigerated CentriVap vacuum concentrator and reconstituted in 150 μl of water–methanol mixture (1:1, v/v). Additionally, a serial 12-point dilution series of a mix of native steroid hormones was prepared to fit a calibration curve in order to quantify steroid concentrations.
The steroid hormones were separated prior to MS measurements on a Kinetex C18 LC Column (2.6 μm, 100 × 2.1 mm; Phenomenex, CA, United States) coupled to an Exion LC system (SCIEX, Framingham, MA, United States). The mobile phase consisted of 0.2 mM NH4F in water and pure methanol and was delivered at a flow rate of 0.6 ml/min in a gradient elution mode. The injection volume was 10 μl.
The LC-MS/MS raw data were processed using AB Sciex OS Analyst version 1.6.2 (SCIEX, Framingham, MA, United States) to calculate fold changes by dividing the measured hormone concentrations by the hormone concentrations in the vehicle controls. The fold changes were used to fit a concentration–response curve in GraphPad Prism using the same model as in the reporter gene assays, and the ECIR1.5 was estimated for each compound.

GH3.TRE cells = assay: Resazurine cell viability assay in GH3.TRE cells
Method: Exposure medium was added to the cells immediately after seeding. […] Exposure conditions, resazurine assay, and luciferase measurements were similar as described for the VM7Luc4E2 cells.

VM7Luc4E2 cells = assay: Resazurine cell viability assay in VM7Luc4E2 cells; format: cell-based, human; conditions: 24 h
[2] = tested on: AR-Ecoscreen-GR-KO M1 cells; assay: Resazurine cell viability assay in AR-Ecoscreen-GR-KO M1 cells; conditions: 24 h
Method: The cell culture medium was discarded and replaced with 100 μl of fresh assay medium. […] Exposure conditions (24 h; 37 °C; 5% CO2), resazurine assay, and luciferase measurements were similar to described for the VM7Luc4E2 cells.

H295R cells = assay: MTT cell viability assay in H295R cells; format: cell-based, human; conditions: H295R cells, 48 h
Method: as §1, with “For the H295R assay, the culturing and exposure of cells were performed according to OECD Test Guideline No. 456 ([OECD 2011]). All” for “All”
as §2, with “wavelength. Concentrations causing >10% decrease in cell viability were excluded from the hormone analysis, and test compounds were retested at a lower concentration.” for “wavelength.”

[3] = molecular target: T1, human transthyretin (TTR) (Homo sapiens, UniProt P02766); assay: FITC-T4 TTR-binding assay, screening method
Method: (§3) All incubations were performed at room temperature.
In the screening tests, 48 μl of Tris-HCl buffer (pH 8.0) was added to each well of black low-binding 96-well plates. Two microliters of each test compound dissolved in their respective solvent was added to each well and the plate was shaken at 600 rpm for 5 min. […] Fluorescence was measured again to check for possible autofluorescence or quenching by the test compound.
(§4) Fluorescence enhancement was determined for each well by subtracting its relative fluorescence units (RFU) before TTR addition from its RFUs after TTR addition. The resulting values were normalized to percentages of the vehicle control. A concentration–response curve was fitted through the data using the same model as in the reporter gene assays.

[4] = tested on: thyroid hormone receptor (TR); assay: TR-Luc reporter gene assay, antagonism (coexposure with 110 pM T3); format: cell-based; conditions: for TR antagonism % max combined: coexposure with 110 pM T3; for pIC50 / TR antagonism IC10: GH3.TRE cells, coexposed with 110 pM T3, 24 h
[5] = molecular target: T1, human transthyretin (TTR); assay: FITC-T4 TTR-binding assay, initial (original) method; conditions: for IC10 competing with FITC-T4 for binding to TTR: initial method, 110 nM FITC-T4, 30 nM TTR
Method: as §3, §4
After 15 min of incubation, fluorescence was measured and fluorescence enhancement was calculated by subtracting RFU without TTR from RFU with TTR. Further data analysis was similar to the screening assays.

## N#CC(CCc1ccc(Cl)cc1)(Cn1cncn1)c1ccccc1 (stereo not drawn) [Fenbuconazole]
[1]
  effect on steroid hormone levels compared with vehicle-treated controls: decreased levels of androgens, estrogens, and corticosteroids
  increased levels of 17α-OH-progesterone compared with vehicle-treated controls: more than 8 fold
GH3.TRE cells; 30 and 100 μM
  cytotoxicity: More than 10%
VM7Luc4E2 cells; 100 μM
  decrease in viability: more than 10%
[2]; 100 μM
  cytotoxicity in the resazurine assay: significant cytotoxicity

## CC1COC(Cn2cncn2)(c2ccc(Oc3ccc(Cl)cc3)cc2Cl)O1 (stereo not drawn) [Difenoconazole]
H295R cells
  highest exposure concentration with <10% decrease in cell viability: 3 µM
[3]
  pIC50: 4.66
[1]
  effect on steroid hormone levels compared with vehicle-treated controls: no effect on androgen levels, but showed decreased levels of corticosteroids
  increased levels of 17α-OH-progesterone compared with vehicle-treated controls: more than 8 fold
[4]; 0.3 uM
  TR antagonism % max combined: 100.42%
[4]; 1 uM
  TR antagonism % max combined: 84.26%
[4]; 3 uM
  TR antagonism % max combined: 56.28%
[4]; 10 uM
  TR antagonism % max combined: 27.83%
[4]
  pIC50: 5.39
  TR antagonism IC10: 0.64 µM
GH3.TRE cells; 30 and 100 μM
  cytotoxicity: More than 10%
[5]
  pIC50: 4.41
  IC10 competing with FITC-T4 for binding to TTR: 0.23 µM
[5]; 0.1 uM
  % FITCT4 bound to TTR: 94.3698%
[5]; 0.3 uM
  % FITCT4 bound to TTR: 86.9998%
[5]; 1 uM
  % FITCT4 bound to TTR: 84.4625%
[5]; 3 uM
  % FITCT4 bound to TTR: 79.4508%
[5]; 10 uM
  % FITCT4 bound to TTR: 60.3391%
[5]; 30 uM
  % FITCT4 bound to TTR: 47.2598%
[5]; 100 uM
  % FITCT4 bound to TTR: 44.9874%
VM7Luc4E2 cells; 30 and 100 μM
  decrease in viability: more than 10%
[2]; 30 and 100 μM
  cytotoxicity in the resazurine assay: significant cytotoxicity

## CCCC1COC(Cn2cncn2)(c2ccc(Cl)cc2Cl)O1 (stereo not drawn) [Propiconazole]
[1]
  effect on steroid hormone levels compared with vehicle-treated controls: no effect on androgen levels, but showed decreased levels of corticosteroids
  increased levels of 17α-OH-progesterone compared with vehicle-treated controls: more than 8 fold
[4]; 0.3 uM
  TR antagonism % max combined: 96.03%
[4]; 1 uM
  TR antagonism % max combined: 99.85%
[4]; 3 uM
  TR antagonism % max combined: 100.91%
[4]; 10 uM
  TR antagonism % max combined: 76.92%
[4]; 30 uM
  TR antagonism % max combined: 33.08%
[4]
  pIC50: 4.70
  TR antagonism IC10: 6.1 µM
GH3.TRE cells; 100 μM
  cytotoxicity: More than 10%
[2]; 100 μM
  cytotoxicity in the resazurine assay: significant cytotoxicity

## CC(C)(C)C(O)C(Oc1ccc(-c2ccccc2)cc1)n1cncn1 (stereo not drawn) [Bitertanol]
[3]
  pIC50: 4.69
[1]
  effect on steroid hormone levels compared with vehicle-treated controls: decreased levels of androgens
GH3.TRE cells; 100 μM
  cytotoxicity: More than 10%
[5]
  pIC50: 4.20
  IC10 competing with FITC-T4 for binding to TTR: 0.22 µM
[5]; 0.1 uM
  % FITCT4 bound to TTR: 93.4196%
[5]; 0.3 uM
  % FITCT4 bound to TTR: 88.4453%
[5]; 1 uM
  % FITCT4 bound to TTR: 84.7037%
[5]; 3 uM
  % FITCT4 bound to TTR: 79.29%
[5]; 10 uM
  % FITCT4 bound to TTR: 64.391%
[5]; 30 uM
  % FITCT4 bound to TTR: 52.4704%
[5]; 100 uM
  % FITCT4 bound to TTR: 49.6904%
VM7Luc4E2 cells; 100 μM
  decrease in viability: more than 10%
[2]; 100 μM
  cytotoxicity in the resazurine assay: significant cytotoxicity

## CC(C)(C)C(O)(CCc1ccc(Cl)cc1)Cn1cncn1 (stereo not drawn) [Tebuconazole]
H295R cells
  highest exposure concentration with <10% decrease in cell viability: 30 µM
[1]; H295R
  increased levels of progesterone and 17α-OH-progesterone compared with vehicle-treated controls: up to 3.5 fold
[1]
  effect on steroid hormone levels compared with vehicle-treated controls: increased levels of progesterone and decreased levels of androgens, estrogens, and corticosteroids
GH3.TRE cells; 100 μM
  cytotoxicity: More than 10%
[2]; 100 μM
  cytotoxicity in the resazurine assay: significant cytotoxicity
